In ChEMBL document CHEMBL1201862, “PubChem BioAssay data set” (2004):
Activity calls are given as the source filed them.

What was measured:
[1] = biological target: T1, Sphingosine 1-phosphate receptor 2 (Homo sapiens, UniProt O95136); experiment: Dose Response Cell Based Assay for Antagonists of the S1P2 Receptor. [Related pubchem assays: 856, 736 ]; format: functional
Prothrombin = Prothrombin (Homo sapiens, UniProt P00734); experiment: Thrombin 1536 HTS Dose Response Confirmation. [Related pubchem assays: 1046 (Thrombin 1536 HTS; hits were confirmed in this assay)]; format: functional
Estrogen receptor beta = Estrogen receptor beta (Homo sapiens, UniProt Q92731);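 further: recombinant ER-beta bound to coactivator SRC1 peptide in presence of estradiol agonist; inhibitors block coactivator peptide binding and lower the FRET signal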
[2] = biological target: T1, Sphingosine 1-phosphate receptor 2; experiment: Dose Response Cell Based Assay for Agonists of the S1P2 Receptor of Purchased Analogues. [Related pubchem assays: 729, 843, 854, 736 ]; format: functional
[3] = biological target: Peroxisome proliferator-activated receptor gamma/Nuclear receptor corepressor 2 (Homo sapiens, UniProt P37231+Q9Y618); experiment: Counterscreen for NR2E3 inverse agonists: TR-FRET-based biochemical high throughput dose response assay to identify inverse agonists of the interaction between peroxisome proliferator-activated receptor gamma (PPARg) and nuclear receptor co-repressor 2 (NCOR2).; format: functional
[4] = biological target: Photoreceptor-specific nuclear receptor (Homo sapiens, UniProt Q9Y5X4); experiment: NR2E3 inverse agonists, dose response, biochemical, TR-FRET (AID 463256); format: functional
Sequence of Photoreceptor-specific nuclear receptor (Q9Y5X4 whole entry): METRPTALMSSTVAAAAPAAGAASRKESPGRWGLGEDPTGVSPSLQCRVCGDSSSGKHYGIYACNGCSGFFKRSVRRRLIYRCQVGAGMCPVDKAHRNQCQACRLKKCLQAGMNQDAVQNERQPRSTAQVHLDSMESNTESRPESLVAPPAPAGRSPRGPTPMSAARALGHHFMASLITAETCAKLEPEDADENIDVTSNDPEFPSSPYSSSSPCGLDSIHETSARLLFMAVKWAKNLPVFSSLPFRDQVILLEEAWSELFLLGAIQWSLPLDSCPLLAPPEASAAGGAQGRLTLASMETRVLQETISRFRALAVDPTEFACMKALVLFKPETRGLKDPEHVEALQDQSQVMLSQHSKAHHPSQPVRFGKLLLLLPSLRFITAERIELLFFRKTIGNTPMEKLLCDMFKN

[5] = biological target: T2, E3 ubiquitin-protein ligase XIAP (Homo sapiens, UniProt P98170); experiment: Counter Screen using XIAP-Bir3 for Chemical Antagonists of Bir1/2 domains of IAP-family anti-apoptotic proteins. [Related pubchem assays (depositor defined):AID1018, AID1449, AID1514, AID1638, AID1749, AID1750, AID488957, AID488963]
T2 sequence (P98170 whole entry): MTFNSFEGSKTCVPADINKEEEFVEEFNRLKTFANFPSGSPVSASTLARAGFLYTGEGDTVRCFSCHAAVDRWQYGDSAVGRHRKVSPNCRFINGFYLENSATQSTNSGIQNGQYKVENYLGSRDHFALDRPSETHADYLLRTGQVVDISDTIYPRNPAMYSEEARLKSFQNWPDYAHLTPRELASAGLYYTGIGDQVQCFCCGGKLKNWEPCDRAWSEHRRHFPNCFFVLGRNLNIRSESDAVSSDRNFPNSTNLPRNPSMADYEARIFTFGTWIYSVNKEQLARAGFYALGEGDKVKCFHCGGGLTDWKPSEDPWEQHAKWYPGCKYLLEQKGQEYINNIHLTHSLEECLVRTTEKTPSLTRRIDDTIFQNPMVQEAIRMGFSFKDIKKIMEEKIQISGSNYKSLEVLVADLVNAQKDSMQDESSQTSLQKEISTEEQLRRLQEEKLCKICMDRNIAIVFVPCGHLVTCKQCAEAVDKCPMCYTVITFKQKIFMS

[6] = biological target: T2, E3 ubiquitin-protein ligase XIAP; experiment: XIAP antagonists, biochemical, IAP family, fluorescence polarization (AID 1018); format: functional
Genome polyprotein = Genome polyprotein (Hepatitis C virus, UniProt Q2Q167); experiment: HCV core protein dimerization inhibitors, dose response, biochemical, TR-FRET (AID 2159); design: species or system Hepacivirus hominis;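 further: blocks dimerization of HCV core protein measured by TR-FRET between tagged core106 pairs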
Sequence of Genome polyprotein (Q2Q167 whole entry): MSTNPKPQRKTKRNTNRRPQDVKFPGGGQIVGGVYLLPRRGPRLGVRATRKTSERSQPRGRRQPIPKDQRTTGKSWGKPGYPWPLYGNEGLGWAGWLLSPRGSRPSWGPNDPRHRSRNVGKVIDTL

[7] = M. tuberculosis H37Rv growth inhibitors, H37Rv strain (AID 1626); format: functional
[8] = biological target: T3, Probable nicotinate-nucleotide adenylyltransferase (Staphylococcus aureus (strain N315), UniProt P65502); format: functional, Staphylococcus aureus subsp. aureus N315; conditions: read-out: IC50_Mean;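 on IC50 Mean: confirmatory dose-response retesting of NadD inhibitor hits first found in an ultra-high-throughput screen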
T3 sequence (P65502 whole entry): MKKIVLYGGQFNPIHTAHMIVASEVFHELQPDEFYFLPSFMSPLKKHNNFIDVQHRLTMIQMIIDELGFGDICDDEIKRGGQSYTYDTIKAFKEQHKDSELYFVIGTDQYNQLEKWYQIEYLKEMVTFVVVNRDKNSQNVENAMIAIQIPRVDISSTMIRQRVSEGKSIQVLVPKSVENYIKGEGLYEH

Leucine aminopeptidase = biological target: T4, Leucine aminopeptidase (Plasmodium falciparum 3D7, UniProt Q8IL11); experiment: P. falciparum M17LAP inhibitors, primary screen, biochemical, fluorogenic H-Leu-NHMec substrate, 1536-well (AID 1619); format: functional
T4 sequence (Q8IL11 whole entry): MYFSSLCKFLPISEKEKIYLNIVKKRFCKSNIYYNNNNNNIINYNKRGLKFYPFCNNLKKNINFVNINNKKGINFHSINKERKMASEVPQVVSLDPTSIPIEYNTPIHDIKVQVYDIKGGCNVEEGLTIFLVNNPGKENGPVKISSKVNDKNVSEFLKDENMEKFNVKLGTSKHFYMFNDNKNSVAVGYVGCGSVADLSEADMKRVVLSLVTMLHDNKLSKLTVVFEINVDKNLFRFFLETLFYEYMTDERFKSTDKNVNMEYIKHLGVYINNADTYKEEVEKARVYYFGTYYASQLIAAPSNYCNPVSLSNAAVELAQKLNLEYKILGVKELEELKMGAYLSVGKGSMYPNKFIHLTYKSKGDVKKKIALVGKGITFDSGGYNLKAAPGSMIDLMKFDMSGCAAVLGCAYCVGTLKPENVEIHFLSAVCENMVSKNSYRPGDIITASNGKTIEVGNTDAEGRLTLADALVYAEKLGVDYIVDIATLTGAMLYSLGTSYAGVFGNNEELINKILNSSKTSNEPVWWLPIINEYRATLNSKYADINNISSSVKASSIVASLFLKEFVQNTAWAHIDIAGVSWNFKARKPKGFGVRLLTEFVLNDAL

Aspartyl aminopeptidase = Aspartyl aminopeptidase (Plasmodium falciparum 3D7, UniProt Q8I2J3); experiment: Counterscreen for inhibitors of M1 and M17 aminopeptidases: QFRET-based biochemical high throughput dose response assay for inhibitors of the Plasmodium falciparum M18 Aspartyl Aminopeptidase (PFM18AAP). [Related PubChem assays: 1619 (Screening assay (M17LAP inhibitors).), 1445 (Screening assay (M1AAP inhibitors).)]
[9] = biological target: T3, Probable nicotinate-nucleotide adenylyltransferase; format: functional, Staphylococcus aureus subsp. aureus N315
Procathepsin L = Procathepsin L (Homo sapiens, UniProt P07711); experiment: cathepsin L inhibitors, dose response, counter-screen for M1/M17 aminopeptidase inhibitor project, biochemical, QFRET, 1536-well (AID 2214)
Sequence of Procathepsin L (P07711 whole entry): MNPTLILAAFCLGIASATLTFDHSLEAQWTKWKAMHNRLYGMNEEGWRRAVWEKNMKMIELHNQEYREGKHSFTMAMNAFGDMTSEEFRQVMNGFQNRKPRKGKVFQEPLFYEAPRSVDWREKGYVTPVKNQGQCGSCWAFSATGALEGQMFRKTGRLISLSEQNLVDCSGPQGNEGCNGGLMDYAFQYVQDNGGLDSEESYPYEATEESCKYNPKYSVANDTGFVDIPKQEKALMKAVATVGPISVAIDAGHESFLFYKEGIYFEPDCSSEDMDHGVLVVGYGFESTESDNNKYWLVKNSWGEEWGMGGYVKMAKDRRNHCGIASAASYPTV

Cytochrome P450 2C19 = Cytochrome P450 2C19 (Homo sapiens, UniProt P33261); experiment: Cytochrome panel assay with activity outcomes. Panel member name: p450-cyp2c19 Compounds with AC50 equal or less than 10 uM are considered active; format: functional; conditions: read-out: AC50
[10] = biological target: Mitogen-activated protein kinase 10 (Homo sapiens, UniProt P53779); experiment: Dose response biochemical screening assay for inhibitors of c-Jun N-Terminal Kinase 3 (JNK3). [Related pubchem assays: 746 ]
Cytochrome P450 2C9 = Cytochrome P450 2C9 (Homo sapiens, UniProt P11712)
Sequence of Cytochrome P450 2C9 (P11712 whole entry): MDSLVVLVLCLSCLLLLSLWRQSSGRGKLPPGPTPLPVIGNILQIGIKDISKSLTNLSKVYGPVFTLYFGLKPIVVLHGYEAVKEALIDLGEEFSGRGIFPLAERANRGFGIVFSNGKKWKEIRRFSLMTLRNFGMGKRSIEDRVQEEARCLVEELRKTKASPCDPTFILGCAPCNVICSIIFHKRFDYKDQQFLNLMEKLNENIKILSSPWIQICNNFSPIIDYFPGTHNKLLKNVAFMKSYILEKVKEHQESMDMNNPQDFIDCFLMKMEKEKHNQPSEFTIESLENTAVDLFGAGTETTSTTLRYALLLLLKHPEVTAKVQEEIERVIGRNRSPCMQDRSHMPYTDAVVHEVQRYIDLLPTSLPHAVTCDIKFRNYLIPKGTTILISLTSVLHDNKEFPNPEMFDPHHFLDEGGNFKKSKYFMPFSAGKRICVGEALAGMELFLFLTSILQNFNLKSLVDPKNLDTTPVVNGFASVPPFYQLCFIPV

Protein Tat = Protein Tat (Human immunodeficiency virus type 1 group M subtype B (isolate HXB2)(HIV-1), UniProt P04608); format: functional;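 further: tat binding to TAR RNA read out by fluorescence polarization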
Sequence of Protein Tat (P04608 whole entry): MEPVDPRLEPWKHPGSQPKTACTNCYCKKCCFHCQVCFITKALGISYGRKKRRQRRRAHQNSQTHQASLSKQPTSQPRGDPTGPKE

[11] = inhibitors of Vif binding to APOBEC3G peptide, primary screen, biochemical, TR-FRET, GST-Vif 1-94, biotin-A3G peptide, dose response retest (AID 1117319); format: functional;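 further: TR-FRET signal of purified GST-Vif binding a biotinylated A3G peptide; inhibitors lower the FRET signal by blocking Vif and A3G binding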
[12] = biological target: Induced myeloid leukemia cell differentiation protein Mcl-1 (Homo sapiens, UniProt Q07820); experiment: MCL1-BIM BH3 interaction inhibitors, dose response, biochemical, fluorescence polarization, BIM-BH3 peptide, 1536-well (AID 2217)
Sequence of Induced myeloid leukemia cell differentiation protein Mcl-1 (Q07820 whole entry): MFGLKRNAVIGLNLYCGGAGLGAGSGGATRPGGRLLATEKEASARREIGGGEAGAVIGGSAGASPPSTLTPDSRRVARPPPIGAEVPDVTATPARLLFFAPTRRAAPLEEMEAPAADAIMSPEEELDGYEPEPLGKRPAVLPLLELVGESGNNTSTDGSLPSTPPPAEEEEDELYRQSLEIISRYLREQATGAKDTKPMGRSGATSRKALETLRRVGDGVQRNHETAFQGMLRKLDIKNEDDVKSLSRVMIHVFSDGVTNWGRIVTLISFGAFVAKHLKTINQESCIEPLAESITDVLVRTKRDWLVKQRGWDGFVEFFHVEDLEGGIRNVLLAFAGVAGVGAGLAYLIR

Bcl-2-like protein 1 = Bcl-2-like protein 1 (Homo sapiens, UniProt Q07817); experiment: BCL-XL inhibitors, dose response, selectivity assay for MCL1 inhibitor project, biochemical, fluorescence polarization, 1536-well (AID 2218)
Sequence of Bcl-2-like protein 1 (Q07817 whole entry): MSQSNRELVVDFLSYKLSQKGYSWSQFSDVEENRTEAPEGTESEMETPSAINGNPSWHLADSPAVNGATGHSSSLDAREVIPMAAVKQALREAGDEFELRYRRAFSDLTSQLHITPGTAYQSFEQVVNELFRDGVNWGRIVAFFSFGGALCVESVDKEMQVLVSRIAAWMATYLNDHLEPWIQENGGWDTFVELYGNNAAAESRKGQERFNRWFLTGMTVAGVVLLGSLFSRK

NADPH oxidase 1 = NADPH oxidase 1 (Homo sapiens, UniProt Q9Y5S8); experiment: Late-stage luminescence-based cell-based dose response assay to identify inhibitors of NADPH oxidase 1 (NOX1): Synthesized analogs 2.; format: functional
Sequence of NADPH oxidase 1 (Q9Y5S8 whole entry): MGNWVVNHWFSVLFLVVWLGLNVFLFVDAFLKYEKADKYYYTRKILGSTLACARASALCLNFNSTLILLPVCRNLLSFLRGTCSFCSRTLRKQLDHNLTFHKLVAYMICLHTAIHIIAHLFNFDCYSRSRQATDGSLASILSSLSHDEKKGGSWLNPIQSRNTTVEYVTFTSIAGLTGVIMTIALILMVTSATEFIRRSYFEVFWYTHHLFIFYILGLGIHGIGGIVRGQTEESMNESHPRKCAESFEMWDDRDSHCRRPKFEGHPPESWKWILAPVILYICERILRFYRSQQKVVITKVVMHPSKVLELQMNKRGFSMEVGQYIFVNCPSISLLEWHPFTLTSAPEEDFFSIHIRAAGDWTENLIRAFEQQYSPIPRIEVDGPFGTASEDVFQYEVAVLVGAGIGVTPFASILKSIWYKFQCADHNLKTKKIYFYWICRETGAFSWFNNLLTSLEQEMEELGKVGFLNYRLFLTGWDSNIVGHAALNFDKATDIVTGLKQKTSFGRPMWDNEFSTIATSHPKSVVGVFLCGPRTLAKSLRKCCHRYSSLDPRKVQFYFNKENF

[13] = biological target: 5-hydroxytryptamine receptor 1A (Homo sapiens, UniProt P08908); format: functional
Sequence of 5-hydroxytryptamine receptor 1A (P08908 whole entry): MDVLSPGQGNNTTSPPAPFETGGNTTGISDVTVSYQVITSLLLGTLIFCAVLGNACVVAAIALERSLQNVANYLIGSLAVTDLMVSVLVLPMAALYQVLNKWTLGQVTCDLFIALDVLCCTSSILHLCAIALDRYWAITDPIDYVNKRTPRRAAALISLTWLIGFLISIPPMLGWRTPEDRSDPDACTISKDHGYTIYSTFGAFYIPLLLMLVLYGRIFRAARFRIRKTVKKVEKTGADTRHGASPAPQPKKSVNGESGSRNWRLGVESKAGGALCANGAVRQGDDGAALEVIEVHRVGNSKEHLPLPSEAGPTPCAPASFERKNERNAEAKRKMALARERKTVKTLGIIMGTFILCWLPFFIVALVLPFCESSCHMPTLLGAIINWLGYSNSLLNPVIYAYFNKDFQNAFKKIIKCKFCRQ

[14] = THP-1 cell cytotoxicity, dose response, cytotoxicity control for Vif-APOBEC3G degradation inhibitor project, THP-1 cells (AID 1117359); format: functional; conditions: Human immunodeficiency virus 1, THP-1
[15] = biological target: Ras and Rab interactor 1/Tyrosine-protein kinase ABL1 (Homo sapiens, UniProt P00519+Q13671); format: functional;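 further: biochemical TR-FRET dose-response test measuring inhibition of binding between Rin1 and Abl proteins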
[16] = biological target: Glutathione-S-transferase (Schistosoma japonicum, UniProt Q26513); experiment: biotin-GST/anti-GST TR-FRET signal inhibitors, dose response, artefact control for Vif-APOBEC3G degradation inhibitor project, biochemical (AID 1117362); format: functional
Nonstructural protein 1 = Nonstructural protein 1 (Influenza A virus, UniProt Q194T2); format: functional, Influenza A virus (A/California/07/2009(H1N1))
[17] = half-maximal inhibitory concentration for glucagon-like peptide-1 release, STC-1 cell line, dose-response (AID 1117345); format: functional, cell-based
Large T antigen = Large T antigen (Simian virus 40, UniProt P03070); format: functional, Betapolyomavirus macacae;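 further: Confirmatory-stage PubChem screen for compounds that inhibit SV40 T antigen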
Sequence of Large T antigen (P03070 whole entry): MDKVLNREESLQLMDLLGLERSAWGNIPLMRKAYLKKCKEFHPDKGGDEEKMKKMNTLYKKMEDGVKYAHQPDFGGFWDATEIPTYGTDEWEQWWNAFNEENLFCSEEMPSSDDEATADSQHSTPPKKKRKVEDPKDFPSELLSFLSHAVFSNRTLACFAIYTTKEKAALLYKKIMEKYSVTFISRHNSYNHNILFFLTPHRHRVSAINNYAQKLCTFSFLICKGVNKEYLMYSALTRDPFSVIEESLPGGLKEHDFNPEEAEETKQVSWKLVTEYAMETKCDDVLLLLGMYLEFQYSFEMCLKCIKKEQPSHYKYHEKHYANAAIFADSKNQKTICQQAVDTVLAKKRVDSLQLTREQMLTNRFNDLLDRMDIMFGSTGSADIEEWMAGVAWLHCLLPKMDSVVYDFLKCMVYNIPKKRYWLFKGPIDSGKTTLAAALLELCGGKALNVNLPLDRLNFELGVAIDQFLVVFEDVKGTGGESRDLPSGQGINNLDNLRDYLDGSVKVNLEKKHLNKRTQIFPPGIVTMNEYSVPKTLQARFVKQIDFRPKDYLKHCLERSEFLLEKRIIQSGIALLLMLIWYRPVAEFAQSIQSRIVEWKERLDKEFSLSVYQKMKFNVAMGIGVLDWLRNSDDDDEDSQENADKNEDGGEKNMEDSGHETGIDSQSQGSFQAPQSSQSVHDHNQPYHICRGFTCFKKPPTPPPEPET

[18] = Glucagon-like peptide 1 release potency, NCI-H716 cell line, dose-response, half-maximal inhibitory concentration (AID 1117344); format: functional, cell-based

T1 sequence (O95136 whole entry): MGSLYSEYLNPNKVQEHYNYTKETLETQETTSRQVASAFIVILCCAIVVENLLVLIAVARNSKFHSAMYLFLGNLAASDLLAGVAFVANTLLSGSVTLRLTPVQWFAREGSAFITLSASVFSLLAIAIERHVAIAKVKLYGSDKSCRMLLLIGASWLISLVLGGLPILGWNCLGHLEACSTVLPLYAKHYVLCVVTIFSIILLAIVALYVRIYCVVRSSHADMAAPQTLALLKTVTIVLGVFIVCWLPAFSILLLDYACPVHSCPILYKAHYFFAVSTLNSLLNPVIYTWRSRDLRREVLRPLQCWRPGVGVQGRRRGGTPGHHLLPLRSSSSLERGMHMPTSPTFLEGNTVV

Question: Which IC50 [1] does the source give for `O=C(O)c1sc2cc(C(F)(F)F)cnc2c1-c1cccnc1` here?
Answer: > 30 µM (not active)

Question: What does the source list for `NC(=Nc1nc2ccccc2o1)NC(=O)c1ccccc1NC(=O)c1ccccc1`?
Answer: IC50 (Prothrombin): > 50 µM (inconclusive); IC50 (Estrogen receptor beta): > 50 µM (not active)

Question: For `Cc1ccc(C(=O)OCC(=O)c2cc(C)n(Cc3ccccc3)c2C)o1`, which EC50 [2] is on record?
Answer: > 30 µM (not active)

Question: For `CN(C)c1ccc(C#Cc2ccc3cc(CCO)oc(=O)c3c2)cc1`, which IC50 [3] is on record?
Answer: > 39.8 µM (not active)

Question: What about the IC50 [4] of the same compound?
Answer: > 39.8 µM (not active)

Question: What does the source list for `CCCNC(=O)c1cc(SC)ccc1Cl`?
Answer: IC50 [5]: > 100 µM (inactive); IC50 [6]: > 100 µM (not active)

Question: For `CCOC(=O)c1sc(NC(=S)NC(=O)C2CC2)cc1C`, which IC50 (Genome polyprotein) is on record?
Answer: > 49.8 µM (not active)

Question: Which IC50 [7] does the source give for `CCOc1ccc(NC(=O)N(C2CCCCC2)C2CCN(C(C)=O)CC2)cc1` here?
Answer: > 100 µM (active)

Question: Which IC50 [8] does the source give for `Cc1ccc(Nc2nnc(SC/C(O)=C(\C#N)c3nc4ccccc4[nH]3)s2)c(C)c1` here?
Answer: 21.4 µM (active)

Question: What about the IC50 (Leucine aminopeptidase) of the same compound?
Answer: 6.03 µM (active)

Question: And the IC50 (Aspartyl aminopeptidase)?
Answer: > 73.5 µM (not active)

Question: And the IC50 [9]?
Answer: 7.79 µM (active)

Question: What about the IC50 (Procathepsin L) of the same compound?
Answer: > 59.6 µM (not active)

Question: Which AC50 (Cytochrome P450 2C19) does the source give for `Fc1ccc2nc3[nH]c4ccccc4c3nc2c1` here?
Answer: 20 µM (inconclusive)

Question: What about the IC50 [10] of the same compound?
Answer: 18.4 µM (not active)

Question: And the AC50 (Cytochrome P450 2C9)?
Answer: 10 µM (inconclusive)

Question: Which IC50 (Protein Tat) does the source give for `COc1ccc(-n2c(Cc3cccn3C)nnc2SCC(N)=O)cc1` here?
Answer: > 100 µM (active)

Question: What about the IC50 [11] of the same compound?
Answer: > 100 µM (active)

Question: With `Clc1cccc(C2Nc3cccc4cccc(c34)N2)c1` as the compound, how does the IC50 [12] read?
Answer: 28.6 µM (not active)

Question: And the IC50 (Bcl-2-like protein 1)?
Answer: > 109 µM (not active)

Question: For `CN1c2ccccc2Sc2cc(NC(=O)CCl)ccc21`, which IC50 (NADPH oxidase 1) is on record?
Answer: 0.653 µM (active)

Question: For `CCOC(=O)c1oc2ccccc2c1NC(=O)c1cc(OC)cc(OC)c1`, which EC50 [13] is on record?
Answer: > 50 µM (not active)

Question: Which CC50 [14] does the source give for `CCc1cccc(NC(=O)CCCCCC2NC(=O)NC2C)c1` (stereo unspecified) here?
Answer: > 40 µM (active)

Question: And the IC50 [15]?
Answer: 0.00897 µM (active)

Question: And the IC50 [16]?
Answer: 9.93 µM (active)

Question: And the IC50 (Nonstructural protein 1)?
Answer: 0.825 µM (active)

Question: With `O=C1OC2(c3ccccc31)c1cc(I)c(O)c(I)c1Oc1c2cc(I)c(O)c1I` [ERYTHROSINE] as the compound, how does the IC50 [17] read?
Answer: 2.93 µM (active)

Question: And the IC50 (Large T antigen)?
Answer: 13 µM (active)

Question: And the IC50 [18]?
Answer: > 40 µM (inactive)
